Data: ChEMBL document CHEMBL1201862, “PubChem BioAssay data set” (2004)
Active and inactive are the calls of the source.

How the values were obtained:
[1] = molecular target: T1, Adenosylmethionine-8-amino-7-oxononanoate aminotransferase (Mycobacterium tuberculosis, UniProt P9WQ81); experiment: Mycobacterium tuberculosis BioA enzyme inhibitor Measured in Biochemical System Using Plate Reader - 2163-02_Inhibitor_Dose_CherryPick_Activity.; format: functional, Mycobacterium tuberculosis UT205
T1 sequence (P9WQ81 whole entry): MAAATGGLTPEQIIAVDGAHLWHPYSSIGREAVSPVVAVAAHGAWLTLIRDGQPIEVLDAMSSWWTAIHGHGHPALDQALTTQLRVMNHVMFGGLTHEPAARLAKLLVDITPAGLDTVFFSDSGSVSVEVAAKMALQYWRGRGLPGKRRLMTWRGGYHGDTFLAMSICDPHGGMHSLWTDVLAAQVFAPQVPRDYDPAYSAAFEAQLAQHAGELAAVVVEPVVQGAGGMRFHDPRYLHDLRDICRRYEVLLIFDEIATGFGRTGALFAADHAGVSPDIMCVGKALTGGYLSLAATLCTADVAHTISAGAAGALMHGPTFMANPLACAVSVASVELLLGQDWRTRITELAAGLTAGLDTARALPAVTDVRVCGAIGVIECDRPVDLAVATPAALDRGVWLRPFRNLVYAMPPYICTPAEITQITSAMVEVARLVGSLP

[2] = molecular target: Heat shock protein HSP 90-alpha (Homo sapiens, UniProt P07900); format: functional, organism-based
[3] = CRF-BP/CRF-R2 complex antagonists, dose response, cell-based, uHTS hits, 384-well (AID 651639); format: functional, Homo sapiens; conditions: read-out: IC50_Mean
[4] = molecular target: T2, Corticotropin-releasing factor receptor 2/Corticotropin-releasing factor-binding protein (Homo sapiens, UniProt P24387+Q13324); experiment: activators of CRF receptor 2 with binding protein – uHTS hits, confirmation (AID 602473); format: functional; conditions: read-out: EC50_Mean
T2 sequence (Q13324 whole entry): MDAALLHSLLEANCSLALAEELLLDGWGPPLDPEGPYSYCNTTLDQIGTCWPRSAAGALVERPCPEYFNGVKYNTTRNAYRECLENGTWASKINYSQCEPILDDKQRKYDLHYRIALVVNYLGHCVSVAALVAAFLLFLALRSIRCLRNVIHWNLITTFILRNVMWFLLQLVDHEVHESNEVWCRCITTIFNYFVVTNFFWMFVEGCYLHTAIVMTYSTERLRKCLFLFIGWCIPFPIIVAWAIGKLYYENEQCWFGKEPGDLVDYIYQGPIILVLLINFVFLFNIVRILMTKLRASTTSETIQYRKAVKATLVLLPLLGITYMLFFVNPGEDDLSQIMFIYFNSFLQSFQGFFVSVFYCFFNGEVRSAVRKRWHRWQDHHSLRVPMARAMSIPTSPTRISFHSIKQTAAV
T2 sequence (P24387 whole entry): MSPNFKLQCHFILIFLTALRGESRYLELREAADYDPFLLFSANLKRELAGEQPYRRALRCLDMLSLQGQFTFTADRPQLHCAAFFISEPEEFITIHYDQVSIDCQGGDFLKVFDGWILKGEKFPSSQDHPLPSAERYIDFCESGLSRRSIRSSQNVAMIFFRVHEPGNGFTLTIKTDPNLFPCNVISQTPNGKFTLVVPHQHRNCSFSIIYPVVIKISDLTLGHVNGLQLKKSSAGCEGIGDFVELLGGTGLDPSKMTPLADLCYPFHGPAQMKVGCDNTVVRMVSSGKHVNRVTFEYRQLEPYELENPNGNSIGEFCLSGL

[5] = molecular target: T2, Corticotropin-releasing factor receptor 2/Corticotropin-releasing factor-binding protein; experiment: Dose Response confirmation of uHTS hits for small molecule antagonists of the CRF-binding protein and CRF-R2 receptor complex.; format: functional; conditions: read-out: IC50_Mean
cells = format: functional, cell-based
[6] = molecular target: T3, Sentrin-specific protease 6 (Homo sapiens, UniProt Q9GZR1); format: functional;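 further: Luminescence-based dose-response confirmatory assay of SENP6 inhibition, following up an ultra-high-throughput screen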
T3 sequence (Q9GZR1 whole entry): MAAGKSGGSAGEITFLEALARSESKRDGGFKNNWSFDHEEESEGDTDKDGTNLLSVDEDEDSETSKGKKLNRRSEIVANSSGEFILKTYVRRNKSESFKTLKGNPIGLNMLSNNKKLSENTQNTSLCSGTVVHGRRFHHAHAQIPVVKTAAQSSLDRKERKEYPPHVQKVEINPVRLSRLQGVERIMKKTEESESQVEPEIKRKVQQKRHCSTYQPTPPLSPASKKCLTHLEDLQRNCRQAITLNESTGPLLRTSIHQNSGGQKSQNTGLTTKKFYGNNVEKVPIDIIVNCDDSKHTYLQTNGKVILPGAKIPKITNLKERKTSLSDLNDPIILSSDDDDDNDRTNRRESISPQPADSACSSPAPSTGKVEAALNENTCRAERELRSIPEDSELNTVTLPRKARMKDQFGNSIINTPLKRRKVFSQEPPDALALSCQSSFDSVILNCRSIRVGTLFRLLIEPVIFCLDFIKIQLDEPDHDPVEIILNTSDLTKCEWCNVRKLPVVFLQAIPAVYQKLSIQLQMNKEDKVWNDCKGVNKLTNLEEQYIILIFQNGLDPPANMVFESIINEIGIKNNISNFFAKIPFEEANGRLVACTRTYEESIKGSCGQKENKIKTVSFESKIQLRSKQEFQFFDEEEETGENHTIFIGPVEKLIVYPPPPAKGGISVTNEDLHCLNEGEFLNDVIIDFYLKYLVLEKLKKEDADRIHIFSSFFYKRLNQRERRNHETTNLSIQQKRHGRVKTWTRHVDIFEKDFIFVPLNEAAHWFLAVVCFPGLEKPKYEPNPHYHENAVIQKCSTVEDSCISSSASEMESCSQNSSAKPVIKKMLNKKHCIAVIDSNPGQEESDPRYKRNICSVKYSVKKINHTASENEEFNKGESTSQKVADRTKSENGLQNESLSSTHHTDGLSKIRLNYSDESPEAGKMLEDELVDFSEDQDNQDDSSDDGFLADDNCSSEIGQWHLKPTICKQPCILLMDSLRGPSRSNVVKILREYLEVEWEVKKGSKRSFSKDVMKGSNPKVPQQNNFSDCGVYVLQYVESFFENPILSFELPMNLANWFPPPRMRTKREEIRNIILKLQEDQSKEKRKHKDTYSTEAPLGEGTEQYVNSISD

[7] = molecular target: T4, Sentrin-specific protease 8 (Homo sapiens, UniProt Q96LD8); format: functional;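 further: luminescence read-out of SENP8 inhibition, dose-response confirmation following an ultra-high-throughput screen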
T4 sequence (Q96LD8 whole entry): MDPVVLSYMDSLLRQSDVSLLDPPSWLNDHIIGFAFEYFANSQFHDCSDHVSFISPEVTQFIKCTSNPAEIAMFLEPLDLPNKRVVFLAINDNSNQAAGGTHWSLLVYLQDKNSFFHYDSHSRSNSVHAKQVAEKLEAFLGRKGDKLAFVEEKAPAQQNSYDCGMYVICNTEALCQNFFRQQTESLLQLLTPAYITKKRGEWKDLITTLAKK

Caspase-3 = molecular target: T5, Caspase-3 (Homo sapiens, UniProt P42574); format: functional;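 further: Dose-response selectivity test against caspase-3 for candidate inhibitors of sentrin-specific proteases (SENPs)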
T5 sequence (P42574 whole entry): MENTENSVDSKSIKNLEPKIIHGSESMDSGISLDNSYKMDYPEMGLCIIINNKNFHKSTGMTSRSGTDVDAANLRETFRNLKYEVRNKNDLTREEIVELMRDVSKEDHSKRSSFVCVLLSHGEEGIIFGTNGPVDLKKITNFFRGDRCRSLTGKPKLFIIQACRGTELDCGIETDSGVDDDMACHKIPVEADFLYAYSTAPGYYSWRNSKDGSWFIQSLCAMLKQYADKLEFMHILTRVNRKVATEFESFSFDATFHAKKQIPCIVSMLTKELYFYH

[8] = molecular target: T6, Sentrin-specific protease 7 (Homo sapiens, UniProt Q9BQF6); format: functional;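 further: Luminescence-based dose-response confirmation of ultra-high-throughput screening hits, measuring inhibition of SENP7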
T6 sequence (Q9BQF6 whole entry): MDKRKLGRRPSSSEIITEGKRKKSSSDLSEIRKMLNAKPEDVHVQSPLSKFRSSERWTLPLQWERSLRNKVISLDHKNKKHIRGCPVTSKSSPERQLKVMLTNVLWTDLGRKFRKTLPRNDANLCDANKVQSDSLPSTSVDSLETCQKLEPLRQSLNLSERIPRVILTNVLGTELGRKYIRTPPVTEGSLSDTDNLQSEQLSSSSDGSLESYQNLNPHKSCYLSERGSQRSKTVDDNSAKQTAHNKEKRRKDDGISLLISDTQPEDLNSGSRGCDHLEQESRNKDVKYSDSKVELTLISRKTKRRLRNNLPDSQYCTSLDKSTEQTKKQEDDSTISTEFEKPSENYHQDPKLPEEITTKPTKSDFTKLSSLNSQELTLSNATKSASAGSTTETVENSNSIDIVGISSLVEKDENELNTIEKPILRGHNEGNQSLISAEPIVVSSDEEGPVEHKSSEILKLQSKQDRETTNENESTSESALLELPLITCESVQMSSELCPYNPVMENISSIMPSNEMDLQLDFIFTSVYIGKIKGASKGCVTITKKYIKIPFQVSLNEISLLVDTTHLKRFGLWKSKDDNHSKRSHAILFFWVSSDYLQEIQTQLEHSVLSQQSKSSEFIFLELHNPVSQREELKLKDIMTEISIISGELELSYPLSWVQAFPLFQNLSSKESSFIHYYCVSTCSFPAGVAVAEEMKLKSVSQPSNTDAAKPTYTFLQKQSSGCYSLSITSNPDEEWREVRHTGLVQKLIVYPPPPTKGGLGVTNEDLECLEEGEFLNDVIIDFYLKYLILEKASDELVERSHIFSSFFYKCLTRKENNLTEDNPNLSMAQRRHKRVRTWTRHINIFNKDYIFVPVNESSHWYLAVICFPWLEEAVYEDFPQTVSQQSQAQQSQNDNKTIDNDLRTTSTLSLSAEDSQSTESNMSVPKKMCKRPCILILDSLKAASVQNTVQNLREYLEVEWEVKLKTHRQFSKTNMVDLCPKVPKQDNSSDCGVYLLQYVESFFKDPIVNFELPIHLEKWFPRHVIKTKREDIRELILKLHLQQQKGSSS

[9] = Luminescence Cell-Based Dose Response HTS to Identify Inhibitors of 5'UTR Stem-Loop Driven Prion Protein mRNA Translation in H4 Neuroglioblastoma Cells. [Related pubchem assays: 1827 (Project Summary), 1813 (Primary HTS)]; format: functional
[10] = molecular target: T7, Heat shock factor protein 1 (Mus musculus, UniProt P38532); experiment: inhibition of MG132-induced HSE-luciferase signal, confirmation, cell-based, NIH3T3, luminescence, dose retest (AID 2382); format: functional;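 further: NIH3T3 fibroblasts with HSF1-driven luciferase reporter stressed by proteasome inhibitor MG132; luminescence from HSF1-driven luciferase expression after 8 hours of MG132 stress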
T7 sequence (P38532 whole entry): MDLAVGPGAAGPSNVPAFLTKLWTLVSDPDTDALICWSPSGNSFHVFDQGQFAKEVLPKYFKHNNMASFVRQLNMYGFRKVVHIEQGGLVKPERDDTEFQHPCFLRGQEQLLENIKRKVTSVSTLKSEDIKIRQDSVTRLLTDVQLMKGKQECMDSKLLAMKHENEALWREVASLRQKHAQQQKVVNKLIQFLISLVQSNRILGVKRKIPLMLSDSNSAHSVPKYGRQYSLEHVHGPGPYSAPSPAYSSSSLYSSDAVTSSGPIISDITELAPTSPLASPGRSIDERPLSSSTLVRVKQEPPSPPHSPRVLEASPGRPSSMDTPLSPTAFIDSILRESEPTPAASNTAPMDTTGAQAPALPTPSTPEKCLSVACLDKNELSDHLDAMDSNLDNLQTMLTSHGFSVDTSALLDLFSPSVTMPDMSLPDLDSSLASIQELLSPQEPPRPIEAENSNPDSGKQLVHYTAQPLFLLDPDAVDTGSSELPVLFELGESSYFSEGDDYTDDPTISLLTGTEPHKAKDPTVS

[11] = inhibitors of firefly luciferase expression or activity, dose response, H4 neuroglioma cells, luminescence (AID 1990); format: functional, cell-based
[12] = inhibitors of SNCA 5'UTR-driven reporter translation, confirmation, H4 neuroglioma cells, luminescence (AID 1988); format: functional, cell-based
HEK293 = experiment: inhibitors of LMP1-driven NF-kB reporter, dose response, cell-based, HEK293, luciferase, cherry-pick (AID 588343); format: functional; conditions: Homo sapiens
[13] = HEp-2 cell cytotoxicity, dose response, cytotoxicity control for RSV inhibitor project, HTS (AID 2410); format: functional; conditions: human respiratory syncytial virus

## Cn1ncc2cc3c(Nc4ccc(Cl)cc4)cccc3nc21
[1]
  AC50: 5.67 µM (active)

## O=C(O)CC/C(=N/Nc1ccc([N+](=O)[O-])cc1)C(=O)O
[2]
  AC50: 4.79 µM (active)

## CC(NC(=O)CC(c1ccccc1)c1cc(Cl)ccc1O)c1ccccc1 (stereo not drawn)
[3]
  IC50: > 20 µM (inactive)
[4]
  EC50: > 53 µM (inactive)
[5]
  IC50: 13.1 µM (active)

## O=C(Nc1ncc2c(n1)CC(c1ccco1)CC2=O)c1ccccc1 (stereo not drawn)
[1]
  AC50: 0.657 µM (active)
cells
  EC50: > 350 µM (not active)

## CCOC(=O)c1sc(NC(=O)c2ccc(C)s2)cc1C
[6]
  IC50: > 100 µM (inactive)
[7]
  IC50: > 100 µM (inactive)
Caspase-3
  IC50: 20.3 µM (active)
[8]
  IC50: 4.46 µM (active)

## CC1CCc2nc(N)c(C#N)c(-c3cccnc3)c2C1 (stereo not drawn)
[9]
  EC50: 7.72 µM (active)
[10]
  EC50: 1.83 µM (active)
[11]
  EC50: 21.9 µM (active)
[12]
  EC50: > 120 µM (not active)
HEK293
  AC50: 9.95 µM (active)

## O=C(N[C@H]1CC[C@@H](CCn2cc(-c3cccnc3)nn2)O[C@@H]1CO)c1ccccc1F
[1]
  AC50: 11.7 µM (active)

## COc1ccc(NC(=O)CN(C)C(=O)C2=COCCO2)cc1
[3]
  IC50: > 20 µM (inactive)
[4]
  EC50: > 53 µM (inactive)
[5]
  IC50: < 0.368 µM (active)

## COC(=O)C1CCN(C2CC(=O)N(c3cc(C)cc(C)c3)C2=O)CC1 (stereo not drawn)
[2]
  AC50: 7.09 µM (active)

## CCC(CO)Oc1cc(NC(=O)c2cccc(F)c2)c2ncn(C(C)C)c2c1 (stereo not drawn)
[1]
  AC50: 5 µM (active)

## CC1=NN(C(N)=S)C(=O)C1N=Nc1ccccc1 (stereo not drawn)
[6]
  IC50: 21.6 µM (active)
[7]
  IC50: > 100 µM (inactive)
Caspase-3
  IC50: 3.7 µM (active)
[8]
  IC50: 5.13 µM (active)

## CCS(=O)(=O)Nc1cccc(-c2cc(-c3ccccc3)c3cc(C)ccc3n2)c1
[2]
  AC50: 4.3 µM (active)
[13]
  CC50: 12 µM (active)
